# Experimental data from patent publication US7671038B1, “Method of therapeautic treatments including human immunodeficiency virus (HIV) disease and other conditions in a human host by administering adenine nucleotides” (priority 1993, dated 2010).
# Entries after “also recorded” stand apart in the source; their conditions may differ.
# Assays:
# [1] = Phase I continuous intravenous ATP infusions in advanced cancer patients: total blood (red blood cell) ATP levels and adverse effects; format: in vivo, human; conditions: after 48 hours of infusion
# Text: In advanced cancer patients with cachexia and malnutrition, the basal blood ATP levels were lower than normal but could be elevated to well above a normal level after ATP infusions.
# [2] = cited from earlier work
# [3] = tested on: tumor-bearing murine models; conditions: cited from earlier work
# TNF-α production = conditions: cited from earlier work; for TNF-α biosynthesis inhibition: conclusion of Parmely et al.
# endotoxin lethality = conditions: mice; cited from earlier work
# T-cells = conditions: HIV seropositive individuals (without AIDS); cited from earlier work
# [4] = activated mouse peritoneal macrophages
compound,measurement,setting,value
"Nc1ncnc2c1ncn2[C@@H]1O[C@H](COP(=O)(O)OP(=O)(O)OP(=O)(O)O)[C@@H](O)[C@H]1O [ATP, adenosine 5′triphosphate]",change of total blood levels of ATP (red blood cell ATP pools),[1]; most patients,doubling
same,total blood ATP levels,[1]; basal levels 0.9-1 mM,1.6 to 2 mM
same,change of blood (red blood cell) ATP levels,"[2]; intravenous infusion 50 μg/kg min, after 24 hours, advanced cancer patients",doubling
same,decline of elevated blood ATP levels after termination of the ATP infusions,[2]; return of total blood ATP to basal levels,declined over a period of several days; also recorded: declined within several days
same,host weight loss,"[3]; cachectic tumor model, murine hosts",markedly inhibit
same,tumor growth,"[3]; elevated ATP levels, tumor-bearing murine models",inhibit
Nc1ncnc2c1ncn2[C@@H]1O[C@H](CO)[C@@H](O)[C@H]1O [adenosine],RNA levels for TNF-α,TNF-α production; [4],no effect
same,TNF-α production,TNF-α production; [4],inhibited
same,TNF-α biosynthesis inhibition,TNF-α production,potent inhibitors
same,protection against endotoxin lethality,endotoxin lethality,failed to protect
"Nc1ncnc2c1ncn2[C@H]1CC[C@@H](O)C1 [MDL201112, reference compound]",TNF-α biosynthesis inhibition,TNF-α production,potent inhibitors
"C[C@H]1O[C@@H](n2cnc3c(N)ncnc32)C[C@@H]1O [ddAdo, 2′,5′-dideoxyadenosine]",cyclic AMP levels,T-cells,reduce
same,proliferative capacity of T-cells to recall antigens and T-cell cytotoxicity,T-cells,increase
